Test results: the CheMixHub ionic liquid set

Experiment: xn = mol fraction of the nth substance listed
Settings: 100 kPa

CCCCCCCCCCCCCCCC[N+](C)(C)C.[Br-] + NCC(=O)NCC(=O)O + O
Settings	electrical conductivity [S/m]
293.15 K, x1 = 3.61e-06, x2 = 0.0001802	0.0032
293.15 K, x1 = 5.41e-06, x2 = 0.0001802	0.0042
293.15 K, x1 = 7.22e-06, x2 = 0.0001802	0.0053
293.15 K, x1 = 9.02e-06, x2 = 0.0001802	0.006
293.15 K, x1 = 3.428e-05, x2 = 0.0001802	0.0097
293.15 K, x1 = 3.608e-05, x2 = 0.0001802	0.0099
298.15 K, x1 = 1.8e-06, x2 = 9.009e-05	0.0016
298.15 K, x1 = 3.61e-06, x2 = 9.009e-05	0.0027
298.15 K, x1 = 5.41e-06, x2 = 9.009e-05	0.0037
298.15 K, x1 = 5.41e-06, x2 = 0.0001802	0.0044
298.15 K, x1 = 7.21e-06, x2 = 9.009e-05	0.0048
298.15 K, x1 = 7.22e-06, x2 = 0.0001802	0.0054
298.15 K, x1 = 9.02e-06, x2 = 0.0001802	0.0062
298.15 K, x1 = 1.082e-05, x2 = 9.009e-05	0.0065
298.15 K, x1 = 1.082e-05, x2 = 0.0001802	0.0072
298.15 K, x1 = 1.262e-05, x2 = 1.802e-05	0.0046
298.15 K, x1 = 2.885e-05, x2 = 9.009e-05	0.0094
298.15 K, x1 = 3.067e-05, x2 = 0.0001802	0.0098
298.15 K, x1 = 3.245e-05, x2 = 9.009e-05	0.0099
303.15 K, x1 = 1.8e-06, x2 = 9.009e-05	0.0018
303.15 K, x1 = 3.61e-06, x2 = 9.009e-05	0.0029
303.15 K, x1 = 3.61e-06, x2 = 0.0001802	0.0036
303.15 K, x1 = 5.41e-06, x2 = 0.0001802	0.0046
303.15 K, x1 = 7.21e-06, x2 = 9.009e-05	0.005
303.15 K, x1 = 7.22e-06, x2 = 0.0001802	0.0055
303.15 K, x1 = 9.02e-06, x2 = 9.009e-05	0.006
303.15 K, x1 = 9.02e-06, x2 = 0.0001802	0.0064
303.15 K, x1 = 1.081e-05, x2 = 1.802e-05	0.0044
303.15 K, x1 = 1.082e-05, x2 = 9.009e-05	0.007
303.15 K, x1 = 1.082e-05, x2 = 0.0001802	0.0073
303.15 K, x1 = 1.262e-05, x2 = 1.802e-05	0.0051
303.15 K, x1 = 1.262e-05, x2 = 9.009e-05	0.0078
303.15 K, x1 = 1.263e-05, x2 = 0.0001802	0.0081
303.15 K, x1 = 1.622e-05, x2 = 1.802e-05	0.0061
303.15 K, x1 = 1.623e-05, x2 = 9.009e-05	0.0089
303.15 K, x1 = 1.624e-05, x2 = 0.0001802	0.009
303.15 K, x1 = 1.802e-05, x2 = 1.802e-05	0.0065
303.15 K, x1 = 1.803e-05, x2 = 9.009e-05	0.0092
303.15 K, x1 = 1.804e-05, x2 = 0.0001802	0.0098
303.15 K, x1 = 1.982e-05, x2 = 1.802e-05	0.007
303.15 K, x1 = 1.983e-05, x2 = 9.009e-05	0.0094
303.15 K, x1 = 1.984e-05, x2 = 0.0001802	0.0099
303.15 K, x1 = 2.164e-05, x2 = 9.009e-05	0.0095
303.15 K, x1 = 2.344e-05, x2 = 9.009e-05	0.0097
303.15 K, x1 = 2.524e-05, x2 = 9.009e-05	0.0099
303.15 K, x1 = 2.703e-05, x2 = 1.802e-05	0.0079
303.15 K, x1 = 2.883e-05, x2 = 1.802e-05	0.0081
303.15 K, x1 = 3.064e-05, x2 = 1.802e-05	0.0082
303.15 K, x1 = 3.244e-05, x2 = 1.802e-05	0.0084
303.15 K, x1 = 3.424e-05, x2 = 1.802e-05	0.0084
303.15 K, x1 = 3.604e-05, x2 = 1.802e-05	0.0086
308.15 K, x1 = 1.8e-06, x2 = 9.009e-05	0.0018
308.15 K, x1 = 1.8e-06, x2 = 0.0001802	0.003
308.15 K, x1 = 3.61e-06, x2 = 9.009e-05	0.003
308.15 K, x1 = 3.61e-06, x2 = 0.0001802	0.0039
308.15 K, x1 = 5.41e-06, x2 = 9.009e-05	0.0042
308.15 K, x1 = 5.41e-06, x2 = 0.0001802	0.0049
308.15 K, x1 = 7.21e-06, x2 = 9.009e-05	0.0052
308.15 K, x1 = 7.22e-06, x2 = 0.0001802	0.0057
308.15 K, x1 = 9.02e-06, x2 = 0.0001802	0.0066
308.15 K, x1 = 1.081e-05, x2 = 1.802e-05	0.0047
308.15 K, x1 = 1.262e-05, x2 = 1.802e-05	0.0055
308.15 K, x1 = 1.262e-05, x2 = 9.009e-05	0.0081
308.15 K, x1 = 1.442e-05, x2 = 1.802e-05	0.006
308.15 K, x1 = 1.622e-05, x2 = 1.802e-05	0.0063
308.15 K, x1 = 1.624e-05, x2 = 0.0001802	0.0099
308.15 K, x1 = 1.802e-05, x2 = 1.802e-05	0.0068
308.15 K, x1 = 1.803e-05, x2 = 9.009e-05	0.01
308.15 K, x1 = 2.163e-05, x2 = 1.802e-05	0.0076
308.15 K, x1 = 2.343e-05, x2 = 1.802e-05	0.0077
308.15 K, x1 = 2.523e-05, x2 = 1.802e-05	0.008
308.15 K, x1 = 2.703e-05, x2 = 1.802e-05	0.0082
308.15 K, x1 = 2.883e-05, x2 = 1.802e-05	0.0084
308.15 K, x1 = 3.064e-05, x2 = 1.802e-05	0.0084
308.15 K, x1 = 3.244e-05, x2 = 1.802e-05	0.0086
308.15 K, x1 = 3.424e-05, x2 = 1.802e-05	0.0087
308.15 K, x1 = 3.604e-05, x2 = 1.802e-05	0.009
313.15 K, x1 = 1.8e-06, x2 = 9.009e-05	0.0019
313.15 K, x1 = 1.8e-06, x2 = 0.0001802	0.0031
313.15 K, x1 = 3.61e-06, x2 = 9.009e-05	0.0033
313.15 K, x1 = 3.61e-06, x2 = 0.0001802	0.004
313.15 K, x1 = 5.41e-06, x2 = 9.009e-05	0.0045
313.15 K, x1 = 5.41e-06, x2 = 0.0001802	0.005
313.15 K, x1 = 7.21e-06, x2 = 1.802e-05	0.0039
313.15 K, x1 = 7.21e-06, x2 = 9.009e-05	0.0055
313.15 K, x1 = 7.22e-06, x2 = 0.0001802	0.0059
313.15 K, x1 = 9.02e-06, x2 = 9.009e-05	0.0064
313.15 K, x1 = 9.02e-06, x2 = 0.0001802	0.0067
313.15 K, x1 = 1.082e-05, x2 = 9.009e-05	0.0075
313.15 K, x1 = 1.082e-05, x2 = 0.0001802	0.0078
313.15 K, x1 = 1.262e-05, x2 = 1.802e-05	0.006
313.15 K, x1 = 1.262e-05, x2 = 9.009e-05	0.0084
313.15 K, x1 = 1.263e-05, x2 = 0.0001802	0.0085
313.15 K, x1 = 1.442e-05, x2 = 1.802e-05	0.0065
313.15 K, x1 = 1.442e-05, x2 = 9.009e-05	0.0091
313.15 K, x1 = 1.443e-05, x2 = 0.0001802	0.0094
313.15 K, x1 = 1.622e-05, x2 = 1.802e-05	0.0069
313.15 K, x1 = 1.802e-05, x2 = 1.802e-05	0.0075
313.15 K, x1 = 1.982e-05, x2 = 1.802e-05	0.0078
313.15 K, x1 = 2.163e-05, x2 = 1.802e-05	0.0081
313.15 K, x1 = 2.343e-05, x2 = 1.802e-05	0.0082
313.15 K, x1 = 2.523e-05, x2 = 1.802e-05	0.0084
313.15 K, x1 = 2.703e-05, x2 = 1.802e-05	0.0086
313.15 K, x1 = 2.883e-05, x2 = 1.802e-05	0.0089
313.15 K, x1 = 3.064e-05, x2 = 1.802e-05	0.009
313.15 K, x1 = 3.244e-05, x2 = 1.802e-05	0.0093
313.15 K, x1 = 3.424e-05, x2 = 1.802e-05	0.0095
313.15 K, x1 = 3.604e-05, x2 = 1.802e-05	0.0097
